Results taken from paper PMC11480511 (Scientific Reports, 2024).
In brackets after ≈: the same amount, converted by molar mass. Where two headings read alike, the source gives them in different places. One block for each compound: values may come before it.

Experiments:
[1] = tested on: A549 lung cancer cell line; set-up: method as in PMID 27614408; details: cited from earlier work
[2] = tested on: MCF-7 breast adenocarcinoma cell line; set-up: method as in PMID 24287557; details: cited from earlier work
[3] = tested on: MDA-MB-231 breast adenocarcinoma; set-up: method as in PMID 24287557; details: cited from earlier work
topoisomerase Iα = biological target: T1, topoisomerase Iα (Homo sapiens, UniProt P11387); test: Topoisomerase I inhibition, human DNA topoisomerase Elisa kit; format: biochemical; details: ± SEM
T1 construct: purchased
T1 sequence (P11387 1-765): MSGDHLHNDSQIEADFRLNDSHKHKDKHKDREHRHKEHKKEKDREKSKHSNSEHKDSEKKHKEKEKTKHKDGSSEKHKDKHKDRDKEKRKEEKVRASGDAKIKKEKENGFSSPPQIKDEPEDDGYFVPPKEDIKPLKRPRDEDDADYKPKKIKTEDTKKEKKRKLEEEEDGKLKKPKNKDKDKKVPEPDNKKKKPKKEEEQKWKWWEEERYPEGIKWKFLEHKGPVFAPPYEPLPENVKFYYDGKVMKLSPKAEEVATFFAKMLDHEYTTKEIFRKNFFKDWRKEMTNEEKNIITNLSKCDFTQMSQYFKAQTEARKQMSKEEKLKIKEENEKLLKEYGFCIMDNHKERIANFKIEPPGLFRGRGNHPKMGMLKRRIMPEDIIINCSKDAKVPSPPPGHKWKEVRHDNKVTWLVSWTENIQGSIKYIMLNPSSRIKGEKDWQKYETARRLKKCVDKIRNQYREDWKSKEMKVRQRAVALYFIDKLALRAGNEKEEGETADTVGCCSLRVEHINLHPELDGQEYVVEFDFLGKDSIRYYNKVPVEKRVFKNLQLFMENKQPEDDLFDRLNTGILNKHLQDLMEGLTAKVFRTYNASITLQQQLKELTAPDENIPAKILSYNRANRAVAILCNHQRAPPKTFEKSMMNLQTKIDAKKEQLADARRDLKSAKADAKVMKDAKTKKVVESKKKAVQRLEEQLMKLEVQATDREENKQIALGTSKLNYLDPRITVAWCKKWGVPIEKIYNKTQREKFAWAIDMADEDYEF
Experimental: (§1) Two folds of serial dilution was accomplished after standards and the tested compounds were dissolved in sample diluent. Horseradish peroxidase (HRP-avidin) and biotin-conjugated antibody were diluted 10 times each. Each well received 100 µL of each concentration of the standard or test chemicals, which were then added and incubated at 37 °C for 60 min. […] The microtiter plate was rinsed three times and given room to aspirate. After that, the plate was incubated at 37 °C for 60 min with 100 µL of HRP-avidin solution added to each well. After that, the plate was aspirated and cleaned 5 times. Each well received 90 µL of TMB substrate, and the plate was incubated for 30 min. at 37 °C in a light-protected environment. Finally, stop solution (50 µL) was loaded, and within 5 min, the absorbance at 450 nm was measured spectrophotometrically.
(§2) Topoisomerase enzyme assay
(§3) Topoisomerase I and II inhibitory activity […]
(§4) topoisomerase IIβ inhibitory activity utilizing the human DNA topoisomerase Elisa kit.
(§5) Standards and the tested compound were dissolved in sample diluent and 2 folds serial dilution was achieved. Biotin-conjugated antibody and avidin conjugated Horseradish Peroxidase (HRP-avidin) were diluted to 10 folds. 100 μL of each concentration of standard or test compound were added to each well. Incubate at 37 °C for 1 h. The liquid in each well was removed. 10 0 μL of Biotin-conjugated antibody solution was added to each well followed by incubation for 1 h at 37 °C. The microtiter plate was allowed to aspirate and washed 3 times. 100 μL of avidin conjugated Horseradish Peroxidase (HRP -avidin) solution was added to each well and the plate was incubated for 1 h at 37 °C. The plate was aspirated and washed 5 times. 90 μL of TMB substrate were added to each well and the plate was incubated for 30 min at 37 °C and protected from light. 50 μL stop so lution was added. The absorbance was measured spectrophotometrically within 5 min at 450 nm .

topoisomerase IIβ = biological target: T2, topoisomerase IIβ (Homo sapiens, UniProt Q02880); test: Topoisomerase II inhibition, human DNA topoisomerase Elisa kit; format: biochemical
T2 construct: purchased
T2 sequence (Q02880 whole entry): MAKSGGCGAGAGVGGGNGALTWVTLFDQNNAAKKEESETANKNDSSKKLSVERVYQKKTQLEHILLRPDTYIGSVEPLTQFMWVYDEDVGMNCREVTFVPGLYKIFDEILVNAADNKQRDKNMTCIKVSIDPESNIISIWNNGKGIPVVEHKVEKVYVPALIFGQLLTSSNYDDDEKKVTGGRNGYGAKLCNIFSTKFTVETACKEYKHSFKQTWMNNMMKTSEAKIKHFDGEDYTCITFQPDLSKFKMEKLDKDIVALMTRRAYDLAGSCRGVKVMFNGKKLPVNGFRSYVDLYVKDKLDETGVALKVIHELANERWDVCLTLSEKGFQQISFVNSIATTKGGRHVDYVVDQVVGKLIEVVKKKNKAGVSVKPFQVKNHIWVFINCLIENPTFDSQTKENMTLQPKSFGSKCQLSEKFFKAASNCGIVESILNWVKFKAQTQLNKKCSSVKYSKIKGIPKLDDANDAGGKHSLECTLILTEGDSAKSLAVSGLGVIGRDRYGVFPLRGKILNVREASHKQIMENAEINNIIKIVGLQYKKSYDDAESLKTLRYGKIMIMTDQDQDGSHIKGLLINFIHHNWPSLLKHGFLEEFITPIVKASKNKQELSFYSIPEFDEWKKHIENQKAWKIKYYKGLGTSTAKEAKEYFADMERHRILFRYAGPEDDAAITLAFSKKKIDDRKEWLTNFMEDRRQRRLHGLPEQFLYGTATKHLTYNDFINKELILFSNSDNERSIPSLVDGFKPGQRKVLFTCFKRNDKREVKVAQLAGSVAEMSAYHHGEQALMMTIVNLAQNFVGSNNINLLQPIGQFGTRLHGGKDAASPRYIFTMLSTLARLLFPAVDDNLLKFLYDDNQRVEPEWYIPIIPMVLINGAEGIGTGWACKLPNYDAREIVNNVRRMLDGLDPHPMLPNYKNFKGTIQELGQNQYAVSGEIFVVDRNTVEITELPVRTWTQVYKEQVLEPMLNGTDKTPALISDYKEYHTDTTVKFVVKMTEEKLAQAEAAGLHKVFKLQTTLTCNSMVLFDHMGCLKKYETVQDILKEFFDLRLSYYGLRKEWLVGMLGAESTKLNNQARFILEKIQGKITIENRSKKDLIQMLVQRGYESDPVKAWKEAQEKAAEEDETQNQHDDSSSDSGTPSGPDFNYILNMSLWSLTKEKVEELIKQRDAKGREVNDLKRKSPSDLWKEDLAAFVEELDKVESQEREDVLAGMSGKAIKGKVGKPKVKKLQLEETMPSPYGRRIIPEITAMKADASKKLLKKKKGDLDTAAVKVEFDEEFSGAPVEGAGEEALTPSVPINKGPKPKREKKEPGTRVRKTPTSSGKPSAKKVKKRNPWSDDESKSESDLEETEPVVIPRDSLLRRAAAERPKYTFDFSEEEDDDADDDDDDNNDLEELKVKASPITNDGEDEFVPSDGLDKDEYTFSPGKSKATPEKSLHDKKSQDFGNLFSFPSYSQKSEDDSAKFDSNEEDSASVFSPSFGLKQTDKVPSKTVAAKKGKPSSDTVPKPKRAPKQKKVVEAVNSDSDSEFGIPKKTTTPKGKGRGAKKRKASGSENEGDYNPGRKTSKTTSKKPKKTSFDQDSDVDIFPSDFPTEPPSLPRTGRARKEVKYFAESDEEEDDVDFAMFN
Experimental: as §1, §2, §3, §4, §5

[4] = tested on: A498 renal cancer cell line; details: read-out: In vitro cytotoxicity (IC50) A498 cell line (µM ± SEM), A498, MTT assay
human melanoma LOX IMVI [5] = details: read-out: In vitro cytotoxicity (IC50) LOX IMVI (µM ± SEM), MTT assay
[6] = tested on: MDA-MB-231 triple negative breast cancer cell line; set-up: method as in earlier work; details: cited from earlier work
[7] = tested on: A498 renal cancer cell line; test: cells; details: Homo sapiens
[8] = tested on: melanoma LOX IMVI cell line; test: Cell cycle analysis, propidium iodide flow cytometry; format: cell-based, human; details: LOX IMVI treated at IC50 concentration
Experimental: The effect of compound 3i on cell cycle progression of LOX IMVI cell line was evaluated using Propidium Iodide Flow Cytometry Kit to measure the DNA content according to the reported protocols. The LOX IMVI cells used in this work were obtained from the American Type Culture Collection. Cells were cultured in DMEM (Invitrogen/Life Technologies) supplemented with 10% FBS (Hyclone), 10 µg/ml insulin (Sigma), and 1% penicillin-streptomycin. The remaining chemicals and reagents were all from Sigma or Invitrogen. Growth media was removed, cells washed with warm PBS and aspirated. Adhered cells were detached from media by addition of 5 ml 10% trypsin/EDTA and incubated 2 min in the incubator. The suspended cells harvested, aspirated to a falcon tube, centrifuged at 2000 rpm for 5 min. Cell count performed after suspending the cells into a fresh media and stained with trypan blue, counted and used for preparation of the appropriate number of cells.

[9] = tested on: melanoma LOX IMVI cell line; test: Annexin V-FITC/PI apoptosis and necrosis assay; format: cell-based, human; details: LOX IMVI treated with IC50 concentration
Experimental: Following the manufacturer’s instructions, the Annexin V-FITC Apoptosis Detection Kit (Bio Vision Research Products, USA) was used to analyze cell apoptosis. Briefly, 500 µL of 1X Binding buffer was used to resuspend 1-5 × 10^5 cells that had been harvested by centrifugation. Propidium iodide (PI, 50 mg/ml) and Annexin V-FITC, each administered in 5 µL, were also added. The cells were first incubated for 5 minutes at room temperature in the dark before being analyzed using the Annexin V-FITC binding flow cytometric technique (Ex = 488 nm; Em = 530 nm) with a FITC signal detector (typically FL1) and PI staining with a phycoerythrin emission signal detector (typically FL2). Before exposing adherent cells to Annexin V-FITC, we gently trypsinized and gave them a single wash in serum-containing medium (A.3–5). Cell synchronisation is done using Double-thymidine synchronization method and the used Media is double modifed eagle media (DMEM).
Cell cycle analysis and detection of apoptosis
Annexin V-FITC apoptosis assay
Cell apoptosis were analyzed by the Annexin V-FITC Apoptosis Detection Kit (Bio Vision Research Products, USA). Thereafter, 1-5 x 10^5 cells were collected by centrifugation and resuspend in 500 μl of 1X Binding Buffer. Added 5 μl of Annexin V-FITC and 5 μl of propidium iodide (PI 50mg/ml, optional.). The cells incubated at room temperature for 5 min in the dark; Analyzed by Annexin V-FITC binding flow cytometric method (Ex = 488 nm; Em = 530 nm) using FITC signal detector (usually FL1) and PI staining by the phycoerythrin emission signal detector (usually FL2). For adherent cells, we gently trypsinized and washed cells once with serum-containing media before incubation with Annexin V-FITC (A.3-5). […]

Bax = test: Western blot of protein expression in LOX IMVI cells; format: cell-based, human; details: control = 1
Experimental: (§6) To evaluate the expression level of the apoptosis modulatory markers Bax, caspase 3 and PARP-1, western blot was performed as formerly described. Three different groups of LOX IMVI cells were permitted to grow to reach 70–80% confluence in […] flasks. The first group of LOX IMVI cells was treated with compound 3i. […] The media was taken out after 48 h, and cells underwent three rounds of ice-cold PBS washing. RIPA lysis buffer [consisting of Tris-HCl pH 7.6 (25 mM), NaCl (150 mM), EDTA (5 mM), NP-40 or Triton X-100 (1%), sodium deoxycholate (1%), SDS1 (1%)] with the proper phosphatase and a protease inhibitor was used to create the whole-cell lysate for 30 min. After centrifuging the mixture at 12,000 rpm for 20 min and sonicating it for five minutes, the supernatant was collected, split into aliquots, and kept at -80 °C. The Biuret method was used to determine protein content[27],[28]. Proteins in each matched cell lysate were denatured in 2 Laemmli buffer containing 5% β--mercaptoethanol at 95 °C for 5 min. For SDS-PAGE electrophoresis, 20 µg of protein per lane were loaded at 100 volts through a 6% stacking gel, then at 125 volts through a 10% resolving gel for around 2 h, and then transferred to a PVDF membrane using a semidry transfer apparatus (made by Cleaver Scientific) for 25 min. The PVDF membrane was first incubated for one hour at 4 °C in TBS buffer containing 0.1% Tween (TBST) and 5% fat-free milk, then overnight at 4 °C with monoclonal anti-Bax, anti-PARP-1, and anti-caspase-3 as primary antibodies (Cell Signalling Technology) at a dilution of 1:500. Membranes were first treated overnight, then three times washed in TBST buffer, then incubated at room temperature for 60 min with the corresponding HRP (horse radish peroxidase)-linked secondary antibodies (Dako). Then the substrate for the chemiluminescent Western ECL (Perkin Elmer, Waltham, MA) was added to the blot as described by the manufacturer by incubating the membranes with equal volumes of ECL solution A and ECL solution B for 1 min.

PARP-1 = test: as above; format: cell-based, human; details: control = 1
Experimental: as §6

active caspase-3 = test: as above; format: cell-based, human; details: control = 1
Experimental: as §6

human melanoma LOX IMVI [10] = test: cells
normal cell line WI 38 = test: MTT cytotoxicity assay on normal cells; format: cell-based; details: Homo sapiens; normal cell line WI 38, MTT assay, ± SEM; read-out: IC50 W138 normal cell line (µM ± SEM)
Experimental: After 24 h of culture incubation and supernatants discarded. […] Each test should include a blank containing complete medium without cells. […] Add reconstituted MTT in an amount equal to 10% of the culture medium volume. […] Spectrophotometrically absorbance was measured at a wavelength of 570 nm. […] Results from all experiments were recorded and the percentage of viable cells was calculated.

[11] = tested on: K. pneumoniae ATCC 10,031; test: Antibacterial screening, agar cup diffusion method; format: cell-based; details: read-out: Minimum inhibitory concentrations (MIC, µM) K. pneumoniae ATCC 10,031
Experimental: (§7) Anti-bacterial activity of the recently synthesized compounds 3a-k was evaluated at AUMC (Assiut University Mycological Centre), Assiut, Egypt. Assays were done against Gram-negative strains of K. pneumoniae (ATCC 100310, E. coli (ATCC 25922), Pseudomonas aeruginosa (ATCC 27853) and the Gram-positive S. aureus (ATCC 6538) strain utilizing standard agar cup diffusion method. The isolates from the four bacterial species examined were kept in TSB (Trypticase Soya Broth, Becton and Dickinson) with 10% glycerol at -70 °C and then subcultured on TSA (Trypticase Soya Agar, Becton and Dickinson) and TSB for 24 h at 37 °C former to inoculation. Bacterial isolates were then plated on sterile petri plates with 1 × 10^8 CFU/mL (0.5 McFarland turbidity) and 20 mL of Mueller Hinton Agar media (Oxoid) was then loaded. To ensure that the microorganisms were evenly dispersed, the plates were gently rotated before being left to harden on a level surface. Four equally spaced spherical-shaped wells (10 mm diameter) were painstakingly drilled using a sterilized cork bore after media solidification. All tested compounds under test underwent two-fold serial dilutions in a sequential manner. Three replications of 100 µL of each concentration were added to a well using a micropipette. Plates were then incubated for 24-hour at 37 °C. The average of the inhibition zones was then calculated. To determine the MICs, the natural logarithm of each diluted test substance’s concentration was plotted against the average area of the related inhibition zone. Following that, a regression line was created and the intercept on the ‘ln concentration” axis was determined, and the antilogarithm was calculated to indicate the MIC value[34],[63].

S. aureus ATCC 6538 = test: Antibacterial screening, agar cup diffusion method; format: cell-based; details: Staphylococcus aureus, ATCC6538; Gram + ve strain; read-out: Minimum inhibitory concentrations (MIC, µM) S. aureus ATCC 6538
Experimental: as §7

[12] = tested on: P. aeruginosa ATCC 27,853; test: Antibacterial screening, agar cup diffusion method; format: cell-based; details: Pseudomonas aeruginosa, ATCC27; Gram –ve strain; read-out: Minimum inhibitory concentrations (MIC, µM) P. aeruginosa ATCC 27,853
E. coli ATCC 25,922 = test: Antibacterial screening, agar cup diffusion method; format: cell-based; details: Escherichia coli, ATCC25, Gram –ve strain; read-out: Minimum inhibitory concentrations (MIC, µM) E. coli ATCC 25,922
Experimental: as §7

Jurkat cells = details: cited from earlier work

Compound: Cn1c(/C=C2\SC(=O)N(CC(=O)Nc3nc(-c4ccccc4)cs3)C2=O)nc2ccccc21 [V]
IC50 [1]: 11.5 ± 1.46 µM

Compound: Cc1ccc(C(=O)CN2C(=O)S/C(=C\C3=C(Cl)c4cc(C)c(C)cc4CCC3)C2=O)cc1 [IV]
IC50 [2]: 1.91 ± 0.03 µM
IC50 [3]: 13.39 ± 0.04 µM

Compound: N.N.[Cl][Pt][Cl] [Cisplatin, reference compound]
IC50 (topoisomerase Iα): 5.71 ± 0.31 µM
IC50 (topoisomerase IIβ; ± SEM, read-out: Topoisomerase II IC50 µM ± SEM): 11.3 ± 0.62 µM
IC50 [4]: 7.92 ± 0.45 µM
IC50 (human melanoma LOX IMVI [5]): 5.07 ± 0.29 µM

Compound: O=C(CN1C(=O)S/C(=C\c2cc(-c3ccc(Cl)cc3)c3[nH]c4ccccc4c3c2)C1=O)N1CCOCC1 [VI]
IC50 [6]: 0.97 ± 0.13 µM

Compound: COc1cccc2c1C(=O)c1c(O)c3c(c(O)c1C2=O)C[C@@](O)(C(=O)CO)C[C@@H]3O[C@H]1C[C@H](N)[C@H](O)[C@H](C)O1 [Doxorubicin, reference compound]
viability at 0.4 µM ([7]; A498): 64.5%
viability at 1.6 µM ([7]; A498): 55.3%
viability at 25 µM ([7]; A498): 37.6%
viability at 100 µM ([7]; A498): 26.6%
IC50 ([7]; A498, read-out: In vitro cytotoxicity (IC50) A498 cell line (µM ± SEM)): 3.59 ± 0.2 µM
IC50 (topoisomerase IIβ): 6.49 ± 0.35 µM
%G0-G1 DNA content [8]: 37.85%
%G2/M DNA content [8]: 5.94%
%Pre-G1 DNA content [8]: 46.29%
%S DNA content [8]: 56.21%
Apoptosis Early [9]: 1.94%
Apoptosis Late [9]: 28.53%
Apoptosis Total [9]: 46.29%
Necrosis [9]: 15.82%
Bax OD (Bax): 6.56
PARP-1 OD (PARP-1): 0.38
Caspace-3 Optical density (OD) (active caspase-3): 5.67
viability at 0.4 µM (human melanoma LOX IMVI [10]): 70.4%
viability at 1.6 µM (human melanoma LOX IMVI [10]): 58.2%
viability at 25 µM (human melanoma LOX IMVI [10]): 42.6%
viability at 100 µM (human melanoma LOX IMVI [10]): 30.4%
IC50 (human melanoma LOX IMVI [10]; read-out: In vitro cytotoxicity (IC50) LOX IMVI (µM ± SEM)): 7.03 ± 0.4 µM
IC50 (normal cell line WI 38): 18.1 ± 0.98 µM

MIC ([11]; Gram –ve strain): 0.10 µM (≈ 0.0331 µg/mL)
MIC ([11]; Klebsiella pneumoniae, ATCC10, Gram –ve strain): 0.1 µM (≈ 0.0331 µg/mL)
MIC (S. aureus ATCC 6538): 5.49 µM
MIC [12]: 0.06 µM (≈ 0.0199 µg/mL)
MIC (E. coli ATCC 25,922): 0.04 µM (≈ 0.0133 µg/mL)
Compound: O=C(O)c1cn(C2CC2)c2cc(N3CCNCC3)c(F)cc2c1=O [Ciprofloxacin, reference compound]
effect on proliferation of Jurkat cells (Jurkat cells; concentration of 25 µg/mL): inhibit the proliferation
apoptosis in Jurkat cells (Jurkat cells; doses higher than 80 µg/mL): induced apoptosis
